Reference: US4778811A, “Pharmaceutical compositions of 2-methyl-thiazolo[4,5-c]quinoline” (EGIS Gyogyszergyar, priority 1985, dated 1988)

Assays:
[1] = Shuttle-box, acquisition of two-way conditioned avoidance reflex; assay type: in vivo
Protocol: The acquisition of a two-way conditioned avoidance reflex (CAR) was analyzed in the shuttle-box during 5 consecutive days. […] It consists of six boxes, each is separated inside by a barrier with a small gate in the middle. […] They were given 100 trials per day. One trial consisted of 15 s intertrial interval, followed by 15 s CS. The last 5 s of CS overlapped the first s of US. At each learning session the number of CAR and intersignal reactions (IR) was automatically counted and evaluated by multiway analysis of variance (ANOVA).

serotonin (5HT) = assay: 5HT level and turnover rate of 5HT in rat brain parts; assay type: in vivo; details: 1 hr after 30 mg/kg s.c.
Protocol: (§1) 11. The turnover rate of dopamine (TRDA), noradrenaline (TRNA) and serotonin (TR5 HT) was measured 1 hr after the injection of 30 mg/kg s.c. 2-methyl-thiazolo[4,5-c]quinoline-ethanesulphonate.

dopamine (DA) = assay: DA level and turnover rate of DA in rat striatum; assay type: in vivo; details: 1 hr after 30 mg/kg s.c.
Protocol: as §1

benzodiazepine receptor = assay: Benzodiazepine (BZD) receptor binding, 3H-diazepam displacement, crude cortical membrane preparation; details: crude cortical membrane, 1 hr, 0° C., TRIS-citrate buffer, pH 6.8
Protocol: For the studies of benzodiazepine /BZD) receptor binding crude cortical membrane preparation was used. […] ^3 H-diazepam was incubated with the membrane for 1 hr at 0° C. in TRIS-citrate buffer, pH 6.8. Specific binding was determined in the presence of 10 μM diazepam. In displacement studies chlordiazepoxide was used as control drug.

[2] = Screening test: one session conditioning / unconditioned reflex, glass cylinder jump; assay type: in vivo, rats; details: 0.025 mg/kg
Protocol: Was elaborated for studying learning and retention of rats during one session conditioning.
During conditioning rats are trained to jump onto the top of glass cylinder by the electric foot-shock (110 V). The escape reaction (unconditioned reflex, UR) is paired with a bell as conditioned stimulus. The criterion of learning is that conditioned reflex (CR) should be elicited 10 times with 10 s intervals without reinforcement. Retention of CR is taken positive when 24 h following the experiment CR can be elicited. In these experiments animals are distributed into 4 categories on the basis of their learning ability.

In the case of Cc1nc2cnc3ccccc3c2s1 [B compound, 2-methyl-thiazolo[4,5-c]quinoline-ethanesulfonate], the “acquisition of conditioned reflex, number of positive responses (F)” value (“acquisition of conditioned reflex … (F)” for short) ([1]; 10 mg/kg s.c., day 1) is reported as 7.5, the “number of intersignal reactions (IR)” value ([1]; 10 mg/kg s.c., day 1) is reported as 11.4 and the “number of negative responses (-f)” value ([1]; 10 mg/kg s.c., day 1) is reported as 76.0. For the same compound, the “acquisition of conditioned reflex … (F)” value ([1]; 10 mg/kg s.c., day 2) was 20.2, the “number of intersignal reactions (IR)” value ([1]; 10 mg/kg s.c., day 2) was 9.1 and the “number of negative responses (-f)” value ([1]; 10 mg/kg s.c., day 2) was 40.8. The “acquisition of conditioned reflex … (F)” value ([1]; 10 mg/kg s.c., day 3) was 20.2, the “number of intersignal reactions (IR)” value ([1]; 10 mg/kg s.c., day 3) was 7.6 and the “number of negative responses (-f)” value ([1]; 10 mg/kg s.c., day 3) was 29.3. For the same compound, the “acquisition of conditioned reflex … (F)” value ([1]; 10 mg/kg s.c., day 4) was 17.8, the “number of intersignal reactions (IR)” value ([1]; 10 mg/kg s.c., day 4) was 4.5 and the “number of negative responses (-f)” value ([1]; 10 mg/kg s.c., day 4) was 29.9. The “acquisition of conditioned reflex … (F)” value ([1]; 10 mg/kg s.c., day 5) was 14.5, the “number of intersignal reactions (IR)” value ([1]; 10 mg/kg s.c., day 5) was 3.3 and the “number of negative responses (-f)” value ([1]; 10 mg/kg s.c., day 5) was 37.5. For the same compound, the “acquisition of conditioned reflex … (F)” value ([1]; 25 mg/kg s.c., day 1) was 8.7, the “number of intersignal reactions (IR)” value ([1]; 25 mg/kg s.c., day 1) was 12.4 and the “number of negative responses (-f)” value ([1]; 25 mg/kg s.c., day 1) was 54.9. For the same compound, the “acquisition of conditioned reflex … (F)” value ([1]; 25 mg/kg s.c., day 2) was 4.2, the “number of intersignal reactions (IR)” value ([1]; 25 mg/kg s.c., day 2) was 5.0 and the “number of negative responses (-f)” value ([1]; 25 mg/kg s.c., day 2) was 67.4. For the same compound, the “acquisition of conditioned reflex … (F)” value ([1]; 25 mg/kg s.c., day 3) was 8.9, the “number of intersignal reactions (IR)” value ([1]; 25 mg/kg s.c., day 3) was 9.2 and the “number of negative responses (-f)” value ([1]; 25 mg/kg s.c., day 3) was 74.1. For the same compound, the “acquisition of conditioned reflex … (F)” value ([1]; 25 mg/kg s.c., day 4) was 4.0, the “number of intersignal reactions (IR)” value ([1]; 25 mg/kg s.c., day 4) was 4.9 and the “number of negative responses (-f)” value ([1]; 25 mg/kg s.c., day 4) was 80.1. The “acquisition of conditioned reflex … (F)” value ([1]; 25 mg/kg s.c., day 5) was 2.5, the “number of intersignal reactions (IR)” value ([1]; 25 mg/kg s.c., day 5) was 3.3 and the “number of negative responses (-f)” value ([1]; 25 mg/kg s.c., day 5) was 85.0. For the same compound, the 5HT level (serotonin (5HT); brainstem) was 792.5 ± 36.9 ng/g, the “TR5HT (turnover rate of 5HT)” value (serotonin (5HT); brainstem) was 237.2 ng/g/h and the 5HT level (serotonin (5HT); teldiencephalon) was 457.9 ± 24.2 ng/g. For the same compound, the “TR5HT (turnover rate of 5HT)” value (serotonin (5HT); teldiencephalon) was 53.9 ng/g/h, the DA level (dopamine (DA)) was 9.14 ± 0.49 µg/g and the “TRDA (turnover rate of DA)” value (dopamine (DA)) was 1.4 ng/g/h.

In the case of CNC1=Nc2ccc(Cl)cc2C(c2ccccc2)=[N+]([O-])C1 [Chlordiazepoxide, chlordiazepoxide, reference compound], the “displacement of 3H-diazepam specific binding” value (benzodiazepine receptor) is reported as “displaced ^3 H-diazepam on the receptor in concentration dependent manner”, the “inhibition of the development of conditioned reflex” value [2] is reported as “does not influence the development of CR” and the “acquisition of conditioned reflex … (F)” value ([1]; 5 mg/kg s.c., day 1) is reported as 23.1. The “number of intersignal reactions (IR)” value ([1]; 5 mg/kg s.c., day 1) was 108, the “number of negative responses (-f)” value ([1]; 5 mg/kg s.c., day 1) was 11.8 and the “acquisition of conditioned reflex … (F)” value ([1]; 5 mg/kg s.c., day 2) was 38.7. The “number of intersignal reactions (IR)” value ([1]; 5 mg/kg s.c., day 2) was 14.0, the “number of negative responses (-f)” value ([1]; 5 mg/kg s.c., day 2) was 9.1 and the “acquisition of conditioned reflex … (F)” value ([1]; 5 mg/kg s.c., day 3) was 35.6. The “number of intersignal reactions (IR)” value ([1]; 5 mg/kg s.c., day 3) was 8.9, the “number of negative responses (-f)” value ([1]; 5 mg/kg s.c., day 3) was 10.2 and the “acquisition of conditioned reflex … (F)” value ([1]; 5 mg/kg s.c., day 4) was 41.1. The “number of intersignal reactions (IR)” value ([1]; 5 mg/kg s.c., day 4) was 6.7, the “number of negative responses (-f)” value ([1]; 5 mg/kg s.c., day 4) was 14.9 and the “acquisition of conditioned reflex … (F)” value ([1]; 5 mg/kg s.c., day 5) was 50.8. For the same compound, the “number of intersignal reactions (IR)” value ([1]; 5 mg/kg s.c., day 5) was 4.2, the “number of negative responses (-f)” value ([1]; 5 mg/kg s.c., day 5) was 13.0 and the “number of negative responses (f) (in words)” value ([1]; 10 mg/kg) was “increased”. For the same compound, the “acquisition of conditioned reflex … (F)” value ([1]; 10 mg/kg s.c., day 1) was 19.9, the “number of intersignal reactions (IR)” value ([1]; 10 mg/kg s.c., day 1) was 10.8 and the “number of negative responses (-f)” value ([1]; 10 mg/kg s.c., day 1) was 32.7. For the same compound, the “acquisition of conditioned reflex … (F)” value ([1]; 10 mg/kg s.c., day 2) was 37.9, the “number of intersignal reactions (IR)” value ([1]; 10 mg/kg s.c., day 2) was 14.7 and the “number of negative responses (-f)” value ([1]; 10 mg/kg s.c., day 2) was 22.8. The “acquisition of conditioned reflex … (F)” value ([1]; 10 mg/kg s.c., day 3) was 33.7, the “number of intersignal reactions (IR)” value ([1]; 10 mg/kg s.c., day 3) was 8.1 and the “number of negative responses (-f)” value ([1]; 10 mg/kg s.c., day 3) was 31.8. For the same compound, the “acquisition of conditioned reflex … (F)” value ([1]; 10 mg/kg s.c., day 4) was 35.6, the “number of intersignal reactions (IR)” value ([1]; 10 mg/kg s.c., day 4) was 6.3 and the “number of negative responses (-f)” value ([1]; 10 mg/kg s.c., day 4) was 36.5. For the same compound, the “acquisition of conditioned reflex … (F)” value ([1]; 10 mg/kg s.c., day 5) was 41.2, the “number of intersignal reactions (IR)” value ([1]; 10 mg/kg s.c., day 5) was 6.1 and the “number of negative responses (-f)” value ([1]; 10 mg/kg s.c., day 5) was 40.8. The “acquisition of conditioned reflex … (F)” value ([1]; 25 mg/kg s.c., day 1) was 9.7, the “number of negative responses (-f)” value ([1]; 25 mg/kg s.c., day 1) was 74.0 and the “acquisition of conditioned reflex … (F)” value ([1]; 25 mg/kg s.c., day 2) was 12.2. For the same compound, the “number of negative responses (-f)” value ([1]; 25 mg/kg s.c., day 2) was 67.5, the “acquisition of conditioned reflex … (F)” value ([1]; 25 mg/kg s.c., day 3) was 17.9 and the “number of negative responses (-f)” value ([1]; 25 mg/kg s.c., day 3) was 67.0. The “acquisition of conditioned reflex … (F)” value ([1]; 25 mg/kg s.c., day 4) was 20.0, the “number of negative responses (-f)” value ([1]; 25 mg/kg s.c., day 4) was 65.6 and the “acquisition of conditioned reflex … (F)” value ([1]; 25 mg/kg s.c., day 5) was 21.4. For the same compound, the “number of negative responses (-f)” value ([1]; 25 mg/kg s.c., day 5) was 59.8, the “acquisition of conditioned reflex (in words)” value ([1]; 10 and 5 mg/kg) was “unchanged” and the “intersignal reactions (IR) (in words)” value ([1]; 10 and 5 mg/kg) was “unchanged”.
